Reference: patent US9738668B2

Columns and labels:
[1] = test system: Aβ-ABAD interaction; details: cited from earlier work
[2] = cited from earlier work
[3] = test system: SK-N-SH cells; assay: Mitochondrial cytochrome c oxidase (CcO) activity in Aβ-treated cells; assay type: cell-based
Description: SK-NSH cells were treated with 5 μM oligomer Aβ plus 1 μM of ABAD inhibitor; inhibitor alone; vehicle (VEH) without inhibitor; or Aβ alone. Forty-eight hour later, CcO activity (μmol protein mg^−1 min^−1) was measured in cell lysates.
The CcO activity was measured according to known methods (Du, et al. (2008) Nat. Med. 14:1097-105) with a cytochrome c oxidase kit (Sigma). In brief, SK-N-SH cells were incubated with ABAD inhibitor and oligomer Aβ for 48 hours. After washing the cells twice with PBS, the cells were collected and concentration was determined by the Bradford method. A suitable volume of cells and enzyme solution was added to 475 μl assay buffer. The reaction was triggered by the addition of 25 μl freshly prepared ferrocytochrome C substrate solution into the cuvette. Changes in OD550 nm were recorded immediately with an Amersham Biosciences ULTROSPECT 3100 pro spectrophotometer.
To assess the effect of ABAD inhibitor on Aft-induced mitochondrial respiratory function, CcO activity was determined.

[4] = test system: brain mitochondria; assay: Mitochondria swelling assay in response to Ca2+; set-up: species or system mice
Description: Brain from mice without white matter was used for mitochondrial isolation. Brain was homogenized in 9 ml of ice-cold EB buffer (1 mmol EDTA, 1-6 mg/ml BSA) using a Dounce homogenizer until no particles could be seen. Homogenates were centrifuged at 1300×g for 5 minutes. Supernatant from this fraction was carefully laid on top of a 15% PERCOLL solution (10 ml) and then centrifuged at 16000 RPM for 10 minutes. The pellet was carefully mixed with 9 ml of mitochondrial buffer (4.098% D-mannitol, 2.56% sucrose, 0.034% K2HPO4, pH 7.3-7.4) and 200 μl of 1% digitonin. After 5 minutes incubation on ice, the mixture was centrifuged at 8000 RPM for 10 minutes. Mitochondrial pellet was washed once with mitochondrial buffer. Subsequently, the mitochondrial pellet was resuspended in 100 μl of mitochondrial buffer and was used for further experiments.
A proper amount of mitochondria was resuspended into 1 ml swelling assay buffer (150 mM KCl, 2 mM KH2PO4, 10 mM HEPES, pH 7.4) and energized by 1 mM glutamate and 1 mM malate. Calcium at varying concentrations was added into the assay buffer to trigger mitochondrial swelling. Mitochondrial permeability transition was determined by studying the rate of change in absorbance at 540 nm via a spectrophotometer.
Given that the Compounds 4, 8 and 15 could inhibit ABAD activity, it was determined whether these same compounds could decrease mitochondrial permeability transition pore (mPTP) formation.

[5] = test system: SK-N-SH cells; assay: ATP levels in Aβ-treated cells; assay type: cell-based
Description: Forty-eight hour later, ATP levels (μmol mg^−1 protein) were measured in cell lysates.
To determine the effect of ABAD inhibitors on Aβ-induced impairment in energy metabolism, ATP levels were measured. […] ATP levels were measured in the cell lysates. […] Therefore, ABAD inhibitors can block mitochondrial dysfunction mediated by Aβ.

[6] = test system: ABAD; assay type: biochemical
Description: Before the assay, all the assay components except SAAC were pre-incubated for 5 minutes, and the reaction started with the addition of SAAC into the reaction mix. The reaction was carried out for a total 6 minutes at room temperature under steady-state conditions, and the decrease of NADH absorbance at 340 nm was determined every 10 seconds. Kinetic data were analyzed by PRISM (Scitech, San Diego, Calif.) to determine IC50 values and Ki. One unit of enzyme activity was defined as that which converted 1.0 μmol of substrate to product per minute.

[7] = Pharmacokinetic study and BBB penetration, LC-MS/MS of plasma and brain; assay type: in vivo, C57BL6 mice; details: mice, intravenous 10 mg/kg
Description: Using the validated LCMS/MS method, blood and brain levels of 4, 8, and 15 were measured in male and female C57BL6 mice (8-10 week-old, weighing approximately 25-30 grams). The mice were housed in a room with controlled temperature (23±3° C.) and moisture level (55±15% relative humidity) and exposed to a controlled 12 hour light/12 hour dark cycle. They were allowed to access to food and water ad libitum. Mice were fasted for 6 hours with free access to water prior to the pharmacokinetic study. To determine the time course of compounds 4, 8, and 15 action in the brain, the plasma pharmacokinetics and BBB penetration capability of the inhibitors were investigated. In these experiments, compounds 4, 8, and 15 were administered to mice by intravenous injection at a dosage of 10 mg/kg. Blood and brain samples were collected from mouse at each time point (2, 5, 10, 30, 60, 120, 240, 360, 720, 1440, and 2880 minutes), a total of 11 time points. For plasma measurements, blood (approximately 500-800 μl) was collected via cardiac-puncture into tubes containing sodium heparin anti-coagulant. Plasma was separated via centrifugation (4° C., 3500 rpm, 10 minutes) and stored in −80° C. freezer. For qualitative confirmations of these compounds in CSF, samples were collected at 2 time points (240 and 1440 min) from five animals at each time point. At the time of measurement, frozen plasma samples were thawed at room temperature and vortexed thoroughly. The following quantities were estimated using non-compartmental calculations performed with WINNONLIN 5.2 (Pharsight, Sunnyvale, Calif.): the area under the plasma concentration-time curve during the period of observation (AUC0-τ); the area under the plasma concentration-time curve from zero to infinity (AUC0-∞); the maximum plasma concentration (Cmax); the time to reach Cmax (Tmax); and the half-life (t1/2).
The LC-MS/MS method described above was used for the determination of 4, 8 and 15 in plasma, brain, and CSF for pharmacokinetic study. Based on the initial concentration data, the pharmacokinetic parameters including the area under the plasma concentration-time curve during the period of observation (AUC0-t), the area under the plasma concentration-time curve from zero to infinity (AUC0-∞) the maximum plasma concentration (Cmax) the time to reach Cmax (Tmax) and the half-life (t1/2) are shown in Table 8.

[8] = Solubility in solvents during LC method development; assay type: physicochemical
Description: During the development of a detection method for analytes 4, 8 and 15, multiple solvents were tested to find the optimal mobile phase. […] Acetonitrile was selected for better peak shape and compatibility with serum/brain protein precipitation. Compounds 8 and 15 were chosen as IS, because of their structural similarity. Selected reaction monitoring (SRM) acquisitions were used for sensitivity and extended dynamic range. The cone voltage and collision energy were optimized for 4, 8 and 15 and the IS by continuously infusing a mixture of the two. The optimum cone voltage was 30V.

Compound: Nc1c(/N=N/c2ccc(-c3ccc(/N=N/c4cc(S(=O)(=O)O)c5ccccc5c4N)cc3)cc2)cc(S(=O)(=O)O)c2ccccc12 [Congo red]
- inhibition of Aβ binding [1]: 100%
- cell permeability [2]: poor cell permeability

Compound: COc1ccc2nc(N[C@@H](c3ccc(F)cc3)P(=O)(OC)OC)sc2c1 [Compound 15, Dimethyl ((4-fluorophenyl) ((6-methoxybenzo[d]thiazol-2-yl)amino)methyl) phosphonate]
- CcO activity, inhibitor alone ([3]; 1 μM inhibitor without Aβ): had no effect on CcO activity
- CcO activity ([3]; 5 μM oligomer Aβ1-42 plus 1 μM inhibitor, 48 hours): reversed the Aβ-mediated decrease of CcO activity
- calcium-mediated mitochondrial swelling ([4]; with calcium): antagonized calcium-mediated mitochondrial swelling
- mitochondrial swelling without calcium ([4]; without calcium): did not affect mitochondrial swelling
- ATP levels ([5]; 5 μM Aβ1-42 plus 1 μM inhibitor): rescued ATP levels
- ATP levels, inhibitor alone ([5]; inhibitor without Aβ): comparable to cells treated with vehicle alone
- inhibition of SAAC reduction by ABAD ([6]; at 10 μM): did not inhibit
- inhibitory effect on SAAC reduction by ABAD ([6]; at 100 or 400 μM): slight inhibitory effect
- t1/2 ([7]; Brain): 11.4 h
- t1/2 ([7]; Plasma): 6.1 h
- solubility in methanol or acetonitrile ([8]; methanol or acetonitrile): dissolved readily
- solubility in water ([8]; water): dissolved partially

Compound: thioflavin T
- inhibition of Aβ binding [1]: ~20%

Compound: fentizole
- inhibitory activity [1]: exhibit inhibitory activity
